Assay results published in US8889704B2 (Array BioPharma Inc., priority 2011, dated 2014).
Counter-ions that a name gives are not always drawn.

Columns and labels:
Type in all cases: biochemical
PIM-1 = PIM-1 (Homo sapiens, UniProt P11309); test: Enzyme PIM-1 Assay ([33P]ATP incorporation into PIM2tide, filter plate); details: averaged IC50; 35 μM ATP, 7.5 μM PIM2tide, 0.25 nM PIM-1, 60 min at 22° C.
How it was run: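 Ten-point, 3-fold dilution series (10 μM top, 2% DMSO final) tested for inhibition of 33P transfer from 35 μM ATP to 7.5 μM PIM2tide by 0.25 nM PIM-1. Reaction 60 min, 22 °C, pH 7.4 MOPS/MgCl2 buffer; phosphocellulose capture, scintillation counting, IC50 where fitted POC equals 50.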

[1] = target: T1, GST-tagged recombinant full-length human Pim-2 (Homo sapiens, UniProt Q9P1W9); test: PIM-2 Assay (as Example A); details: averaged IC50; 4 μM ATP, 1.0 μM PIM2tide, 1.5 nM Pim-2
T1 construct: GST-tagged recombinant full-length human Pim-2; GST
T1 sequence (Q9P1W9 whole entry): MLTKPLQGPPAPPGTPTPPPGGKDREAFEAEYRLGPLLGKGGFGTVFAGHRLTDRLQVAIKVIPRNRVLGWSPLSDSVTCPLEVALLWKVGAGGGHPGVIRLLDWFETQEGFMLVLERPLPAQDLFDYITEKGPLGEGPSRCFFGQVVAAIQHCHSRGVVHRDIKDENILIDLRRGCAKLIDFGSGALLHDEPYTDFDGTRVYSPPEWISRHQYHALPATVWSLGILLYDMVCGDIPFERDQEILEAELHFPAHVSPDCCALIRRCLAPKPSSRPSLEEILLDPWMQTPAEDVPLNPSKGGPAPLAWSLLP
How it was run: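 IC50 was derived by 4-parameter logistic fitting of percent-of-control data over a 10-point, 3-fold series (highest 10 μM, 2% DMSO). Reactions held 1.5 nM GST-Pim-2 (full-length, human), 4 μM [γ-33P]ATP and 1.0 μM PIM2tide for 60 min at 22 °C, pH 7.4; 33P-peptide captured on P81 filters.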

recombinant rat PIM-3 = recombinant rat PIM-3 (Rattus norvegicus, UniProt O70444); test: PIM-3 Assay (as Example A); details: averaged IC50; 30 μM ATP, 3.75 μM PIM2tide, 0.5 nM PIM-3
How it was run: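 33P incorporation from 30 μM [γ-33P]ATP into 3.75 μM PIM2tide by 0.5 nM rat PIM-3, 60 min at 22 °C in pH 7.4 MOPS buffer, read by P81 filter capture and scintillation counting. Compounds tested in 3-fold dilutions up to 10 μM final, 2% DMSO; percent-of-control data fitted by 4-parameter logistic for IC50.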

Chain of PIM-1 (P11309 whole entry, species assumed): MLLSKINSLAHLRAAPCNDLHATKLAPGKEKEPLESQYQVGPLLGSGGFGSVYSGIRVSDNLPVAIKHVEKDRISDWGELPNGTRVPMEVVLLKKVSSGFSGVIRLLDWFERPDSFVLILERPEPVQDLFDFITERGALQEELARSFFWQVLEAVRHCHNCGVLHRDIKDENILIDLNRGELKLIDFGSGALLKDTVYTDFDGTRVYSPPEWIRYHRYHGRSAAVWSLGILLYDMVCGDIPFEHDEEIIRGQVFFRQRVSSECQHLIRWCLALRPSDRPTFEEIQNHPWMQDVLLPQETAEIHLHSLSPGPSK

| SMILES | IC50 (PIM-1) | IC50 [1] | IC50 (recombinant rat PIM-3) |
| --- | --- | --- | --- |
| C[C@]1(N)CCN([C@@H](c2ccc3nnc(-c4ccc5ccc(C6CC6)cc5n4)n3c2)C(F)(F)F)C1 [Example 223, (S)-1-((S)-1-(3-(7-cyclopropylquinolin-2-yl)-[1,2,4]triazolo[4,3-a]pyridin-6-yl)-2,2,2-trifluoroethyl)-3-methylpyrrolidin-3-amine dihydrochloride] | 0.29 nM | 62 nM | 0.3 nM |
| CC(C)(C#N)c1cccc2ccc(-c3nnc4ccc([C@@H](N5CC[C@H](N)C5)C(F)(F)F)cn34)nc12 [Example 99, 2-(2-(6-((R)-1-((S)-3-aminopyrrolidin-1-yl)-2,2,2-trifluoroethyl)-[1,2,4]triazolo[4,3-a]pyridin-3-yl)quinolin-8-yl)-2-methylpropanenitrile dihydrochloride] | 0.11 nM | 55 nM | 0.6 nM |
| COc1cc2nc(-c3nnc4ccc([C@@H](N5C[C@@H](N)[C@@H](F)C5)C(F)(F)F)cn34)ccc2cc1F [Example 210, (3R,4S)-4-fluoro-1-((R)-2,2,2-trifluoro-1-(3-(6-fluoro-7-methoxyquinolin-2-yl)-[1,2,4]triazolo[4,3-a]pyridin-6-yl)ethyl)pyrrolidin-3-amine dihydrochloride] | > 100 nM | > 1000 nM | > 100 nM |
| COc1c(F)cc2ccc(-c3nnc4ccc([C@@H](N5CC[C@H](N)C5)C(F)(F)F)cn34)nc2c1F [Example 178, (S)-1-((R)-1-(3-(6,8-difluoro-7-methoxyquinolin-2-yl)-[1,2,4]triazolo[4,3-a]pyridin-6-yl)-2,2,2-trifluoroethyl)pyrrolidin-3-amine dihydrochloride] | 1.81 nM | > 100 nM | 19 nM |
| COCC1(c2cc3nc(-c4nnc5ccc([C@@H](N6CC[C@H](N)C6)C(F)(F)F)cn45)ccc3cc2F)CC1 [Example 165, (S)-1-((R)-2,2,2-trifluoro-1-(3-(6-fluoro-7-(1-(methoxymethyl)cyclopropyl)quinolin-2-yl)-[1,2,4]triazolo[4,3-a]pyridin-6-yl)ethyl)pyrrolidin-3-amine dihydrochloride] | 3.83 nM | > 100 nM | 6.6 nM |
| COCC(COC)Oc1cccc2ccc(-c3nnc4ccc([C@@H](N5CC[C@H](N)C5)C(F)(F)F)cn34)nc12 [Example 271, ((S)-1-((R)-1-(3-(8-(1,3-dimethoxypropan-2-yloxy)quinolin-2-yl)-[1,2,4]triazolo[4,3-a]pyridin-6-yl)-2,2,2-trifluoroethyl)pyrrolidin-3-aminedihydrochloride] | 0.73 nM | 647 nM | 4.3 nM |
| CC1(N)CCN(C(c2ccc3nnc(-c4ccc5cccc(O)c5n4)n3c2)C(F)(F)F)C1 (stereo not drawn) [Example 28, 2-(6-(1-(3-amino-3-methylpyrrolidin-1-yl)-2,2,2-trifluoroethyl)-[1,2,4]triazolo[4,3-a]pyridin-3-yl)quinolin-8-ol dihydrochloride] | 1.08 nM | > 1000 nM | 8.2 nM |
| CC(=O)OCCOc1cc2nc(-c3nnc4ccc([C@@H](N5CC[C@H](N)C5)C(F)(F)F)cn34)ccc2cc1F [Example 122, 2-(2-(6-((R)-1-((S)-3-aminopyrrolidin-1-yl)-2,2,2-trifluoroethyl)-[1,2,4]triazolo[4,3-a]pyridin-3-yl)-6-fluoroquinolin-7-yloxy)ethyl acetate hydrochloride] | 0.2 nM | > 100 nM | 0.7 nM |
| CCOc1cc2nc(-c3nnc4ccc([C@H](N5CC[C@H](CN)C5)C(F)(F)F)cn34)ccc2cc1F [Example 296, ((R)-1-((S)-1-(3-(7-ethoxy-6-fluoroquinolin-2-yl)-[1,2,4]triazolo[4,3-a]pyridin-6-yl)-2,2,2-trifluoroethyl)pyrrolidin-3-yl)methanamine hydrochloride] | 1.51 nM | > 1000 nM | 12 nM |
| CCC(CC)C(=O)OCCOc1cc2nc(-c3nnc4ccc([C@@H](N5CC[C@H](N)C5)C(F)(F)F)cn34)ccc2cc1F [Example 288, 2-(2-(6-((R)-1-((S)-3-aminopyrrolidin-1-yl)-2,2,2-trifluoroethyl)-[1,2,4]triazolo[4,3-a]pyridin-3-yl)-6-fluoroquinolin-7-yloxy)ethyl 2-ethylbutanoate] | 9.42 nM | > 1000 nM | 56 nM |
| COc1cc(F)cc2ccc(-c3nnc4ccc([C@H](N5CC[C@](C)(N)C5)C(F)(F)F)cn34)nc12 [Example 218, (S)-3-methyl-1-((S)-2,2,2-trifluoro-1-(3-(6-fluoro-8-methoxyquinolin-2-yl)-[1,2,4]triazolo[4,3-a]pyridin-6-yl)ethyl)pyrrolidin-3-amine] | 0.26 nM | 33 nM | 0.4 nM |
| N[C@H]1CCN([C@H](c2ccc3nnc(-c4ccc5cccc(OCCO)c5n4)n3c2)C(F)(F)F)C1 [Example 219, 2-(2-(6-((R)-1-((S)-3-aminopyrrolidin-1-yl)-2,2,2-trifluoroethyl)-[1,2,4]triazolo[4,3-a]pyridin-3-yl)quinolin-8-yloxy)ethanol dihydrochloride] | 0.26 nM | 253 nM | 1.2 nM |
| CC(C)Sc1ccc2ccc(-c3nnc4ccc([C@@H](N5CC[C@H](N)C5)C(F)(F)F)cn34)nc2c1 [Example 268, (S)-1-((R)-2,2,2-trifluoro-1-(3-(7-(isopropylthio)quinolin-2-yl)-[1,2,4]triazolo[4,3-a]pyridin-6-yl)ethyl)pyrrolidin-3-amine hydrochloride] | 0.89 nM | > 1000 nM | 3.4 nM |

Next, values leading:

| IC50 (PIM-1) | IC50 [1] | IC50 (recombinant rat PIM-3) | SMILES |
| --- | --- | --- | --- |
| 0.34 nM | > 100 nM | 1.2 nM | COCCOc1ccc2ccc(-c3nnc4ccc([C@@H](N5CC[C@H](N)C5)C(F)(F)F)cn34)nc2c1 [Example 148, (S)-1-((R)-2,2,2-trifluoro-1-(3-(7-(2-methoxyethoxy)quinolin-2-yl)-[1,2,4]triazolo[4,3-a]pyridin-6-yl)ethyl)pyrrolidin-3-amine dihydrochloride] |
| 0.53 nM | 266 nM | 10 nM | CC(C)N[C@H]1CCN(C(c2ccc3nnc(-c4ccc5cccc(OCC6CC6)c5n4)n3c2)C(F)(F)F)C1 (stereo partly drawn) [Example 32, (3S)-1-(1-(3-(8-(cyclopropylmethoxy)quinolin-2-yl)-[1,2,4]triazolo[4,3-a]pyridin-6-yl)-2,2,2-trifluoroethyl)-N-isopropylpyrrolidin-3-amine dihydrochloride] |
| 0.25 nM | 30 nM | 0.7 nM | CC(C)(C)c1cccc2ccc(-c3nnc4ccc([C@@H](N5C[C@@H](N)[C@H](O)C5)C(F)(F)F)cn34)nc12 [Example 145, (3R,4R)-4-amino-1-((R)-1-(3-(8-tert-butylquinolin-2-yl)-[1,2,4]triazolo[4,3-a]pyridin-6-yl)-2,2,2-trifluoroethyl)pyrrolidin-3-ol dihydrochloride] |
| 0.25 nM | 273 nM | 0.9 nM | N[C@H]1CCN([C@H](c2ccc3nnc(-c4ccc5cc(F)cc(OCCO)c5n4)n3c2)C(F)(F)F)C1 [Example 254, 2-(2-(6-((R)-1-((S)-3-aminopyrrolidin-1-yl)-2,2,2-trifluoroethyl)-[1,2,4]triazolo[4,3-a]pyridin-3-yl)-6-fluoroquinolin-8-yloxy)ethanol dihydrochloride] |
| 1.31 nM | 151 nM | 2.5 nM | COc1cccc2ccc(-c3nnc4ccc([C@H](N5CC[C@H](N)C5)C(F)(F)F)cn34)nc12 [Example 8, (S)-1-((S)-2,2,2-trifluoro-1-(3-(8-methoxyquinolin-2-yl)-[1,2,4]triazolo[4,3-a]pyridin-6-yl)ethyl)pyrrolidin-3-amine dihydrochloride] |
| 0.25 nM | 172 nM | 0.5 nM | N[C@H]1CCN(C(c2ccc3nnc(-c4ccc5ccc(-c6cccnc6)cc5n4)n3c2)C(F)(F)F)C1 (stereo partly drawn) [Example 18, (3S)-1-(2,2,2-trifluoro-1-(3-(7-(pyridin-3-yl)quinolin-2-yl)-[1,2,4]triazolo[4,3-a]pyridin-6-yl)ethyl)pyrrolidin-3-amine tri-hydrochloride] |
| 0.73 nM | > 100 nM | 12 nM | N#Cc1ccc2ccc(-c3nnc4ccc([C@@H](N5CC[C@H](N)C5)C(F)(F)F)cn34)nc2c1 [Example 84, 2-(6-((R)-1-((S)-3-aminopyrrolidin-1-yl)-2,2,2-trifluoroethyl)-[1,2,4]triazolo[4,3-a]pyridin-3-yl)quinoline-7-carbonitrile] |
| 0.36 nM | 94 nM | 0.7 nM | CC(C)(CCO)c1cccc2ccc(-c3nnc4ccc([C@@H](N5CC[C@H](N)C5)C(F)(F)F)cn34)nc12 [Example 224, 3-(2-(6-((R)-1-((S)-3-aminopyrrolidin-1-yl)-2,2,2-trifluoroethyl)-[1,2,4]triazolo[4,3-a]pyridin-3-yl)quinolin-8-yl)-3-methylbutan-1-ol dihydrochloride] |
